Source: ChEMBL document CHEMBL4673239, “Discovery of Tyrosine Kinase 2 (TYK2) Inhibitor (PF-06826647) for the Treatment of Autoimmune Diseases” (J Med Chem, 2020)
In brackets after ≈: the same amount, converted by molar mass. Activity calls are given as the source filed them. The rule behind the calls is not given here.

Assays:
[1] = Apparent permeability in MDCK-II cells; format: ADME, cell-based, Canis lupus familiaris; conditions: dog
[2] = Clearance in human liver microsomes assessed per mg protein; format: ADME, Microsome; conditions: read-out: CLH
[3] = Fraction unbound in human plasma; format: ADME, cell-free
[4] = Dissociation constant, basic pKa of compound; format: physicochemical
[5] = Thermodynamic solubility of the compound at pH 7.4 using crystalline form of sample; format: physicochemical; conditions: read-out: Therm_solubility
[6] = Clearance in Sprague-Dawley rat at 1 mg/kg, iv; format: ADME, organism-based; conditions: in vivo
[7] = Volume of distribution at steady state in Sprague-Dawley rat at 1 mg/kg, iv; format: ADME, organism-based; conditions: in vivo, read-out: Vdss
[8] = AUC infinity in Sprague-Dawley rat at 1 mg/kg, iv; format: ADME, organism-based; design: time infinity, route intravenous, dose 1 mg/kg; conditions: in vivo
[9] = Oral bioavailability in Sprague-Dawley rat at 3 mg/kg using crystalline form of sample; format: ADME, organism-based; conditions: in vivo
[10] = Oral bioavailability in Sprague-Dawley rat at 30 mg/kg using crystalline form of sample; format: ADME, organism-based; conditions: in vivo
[11] = Oral bioavailability in Sprague-Dawley rat at 3 mg/kg using SDD formulation; format: ADME, organism-based; conditions: in vivo
[12] = Oral bioavailability in Sprague-Dawley rat at 30 mg/kg using SDD formulation; format: ADME, organism-based; conditions: in vivo
[13] = Cmax in Sprague-Dawley rat at 3 mg/kg, po using SDD formulation; format: ADME, organism-based; design: route oral, dose 3 mg/kg; conditions: in vivo
[14] = Cmax in Sprague-Dawley rat at 30 mg/kg, po using SDD formulation; format: ADME, organism-based; design: route oral, dose 30 mg/kg; conditions: in vivo
[15] = AUC infinity in Sprague-Dawley rat at 3 mg/kg, po using SDD formulation; format: ADME, organism-based; design: time infinity, route oral, dose 3 mg/kg; conditions: in vivo
[16] = AUC infinity in Sprague-Dawley rat at 30 mg/kg, po using SDD formulation; format: ADME, organism-based; design: time infinity, route oral, dose 30 mg/kg; conditions: in vivo
[17] = Protein binding in rat plasma; format: ADME, cell-free; conditions: read-out: PPB (converted)
[18] = Protein binding in human plasma; format: ADME, cell-free
[19] = Renal excretion in rat; format: ADME, Kidney; conditions: urine, read-out: Drug excretion
[20] = Bile excretion in rat; format: ADME; conditions: read-out: Drug excretion
[21] = Unbound drug level in imiquimod-induced mouse model of skin inflammation at 1 mg/kg, po qd; format: ADME, organism-based; conditions: in vivo
[22] = Unbound drug level in imiquimod-induced mouse model of skin inflammation at 3 mg/kg, po qd; format: ADME, organism-based; conditions: in vivo
[23] = Unbound drug level in imiquimod-induced mouse model of skin inflammation at 10 mg/kg, po qd; format: ADME, organism-based; conditions: in vivo
[24] = Unbound drug level in imiquimod-induced mouse model of skin inflammation at 30 mg/kg, po qd; format: ADME, organism-based; conditions: in vivo
Mus musculus [25] = experiment: Antiinflammatory activity in imiquimod-induced mouse model of skin inflammation assessed as reduction in IL12 stimulation at 1 mg/kg, po qd; format: functional; design: scale not given: the % may be the effect or the level left
Mus musculus [26] = experiment: Antiinflammatory activity in imiquimod-induced mouse model of skin inflammation assessed as reduction in IL12 stimulation at 3 mg/kg, po qd; format: functional; design: scale not given: the % may be the effect or the level left
Mus musculus [27] = experiment: Antiinflammatory activity in imiquimod-induced mouse model of skin inflammation assessed as reduction in IL12 stimulation at 10 mg/kg, po qd; format: functional; design: scale not given: the % may be the effect or the level left
Mus musculus [28] = experiment: Antiinflammatory activity in imiquimod-induced mouse model of skin inflammation assessed as reduction in IL12 stimulation at 30 mg/kg, po qd; format: functional; design: scale not given: the % may be the effect or the level left
Mus musculus [29] = experiment: Antiinflammatory activity in imiquimod-induced mouse model of skin inflammation assessed as reduction in ear swelling at 1 mg/kg, po qd; format: functional, organism-based
Mus musculus [30] = experiment: Antiinflammatory activity in imiquimod-induced mouse model of skin inflammation assessed as reduction in ear swelling at 30 mg/kg, po qd relative to control; format: functional; design: scale not given: the % may be the effect or the level left
Mus musculus [31] = experiment: Antiinflammatory activity in imiquimod-induced mouse model of skin inflammation assessed as reduction in ear swelling at 10 mg/kg, po qd relative to control; format: functional; design: scale not given: the % may be the effect or the level left
Mus musculus [32] = experiment: Antiinflammatory activity in imiquimod-induced mouse model of skin inflammation assessed as reduction in ear swelling at 3 mg/kg, po qd relative to control; format: functional; design: scale not given: the % may be the effect or the level left
physchem = conditions: octanol/water phosphate buffer, pH 7.4
Description: Octanol/water phosphate buffer partition coefficient, log D of compound at pH 7.4 by shake-flask method

Work on `Cn1cc(-c2cn3nccc3c(-c3cnn([C@]4(CC#N)C[C@@H](C#N)C4)c3)n2)cn1` [ROPSACITINIB] yielded a Papp [1] of 17 ×10⁻⁶ cm/s, a microsomal CLint [2] of less than 8 µL/min/mg and a Fu [3] of 0.38. For the same molecule, the pKa [4] was less than 1.7, the solubility thermodynamic [5] was 0.8 µM (≈ 0.307 µg/mL) and the clearance [6] was 12 mL/min/kg. It also gave a Vd [7] of 1.1 L/kg, an AUC(0-inf) [8] of 1380 ng·h/mL and a bioavailability [9] of 15%. It also gave a bioavailability [10] of 8%, a bioavailability [11] of 58% and a bioavailability [12] of 63%. It also gave a Cmax [13] of 369 ng/mL, a Cmax [14] of 2780 ng/mL and an AUC(0-inf) [15] of 2390 ng·h/mL. The AUC(0-inf) [16] was 25900 ng·h/mL, the fraction unbound [17] was 0.82 and the PPB [18] was 38%. For the same molecule, the dose excreted [19] was 1.3%, the dose excreted [20] was 0.9% and the “Drug uptake(free)” value [21] was 14.5 nM. The “Drug uptake(free)” value [22] was 45.7 nM, the “Drug uptake(free)” value [23] was 225 nM and the “Drug uptake(free)” value [24] was 668 nM. The Activity (Mus musculus [25]) was 51%, the Activity (Mus musculus [26]) was 77% and the Activity (Mus musculus [27]) was 94%. For the same molecule, the Activity (Mus musculus [28]) was 98%, the Activity (Mus musculus [29]) was “inactive” and the Activity (Mus musculus [30]) was 46.2%. For the same molecule, the Activity (Mus musculus [31]) was 34%, the Activity (Mus musculus [32]) was 31.3% and the logD (physchem) was 1.7.
